Reference: the supplement of paper PMC10307832

How the values were obtained:
Assay in all cases: relative viability (nuclei count vs DMSO), 5 days (fraction); higher = more cells survive
201T = system: 201T
Summary of the method: (§1)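 The day after seeding in 1536-well plates, lung cancer cell lines were treated by pin tool with a single drug, or with a fixed anchor-drug dose together with five library-drug doses (not always all listed) in √10 steps. After 5 days, a combined fix-and-stain solution (final 0.05% Triton X-100, 1% formaldehyde, 1 ug/ml Hoechst) was added. Nuclei counted on 4× images gave relative viability as treated counts over vehicle counts, reported as the median of duplicate plates.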

COR-L23 = system: COR-L23
Summary of the method: as §1

H3255 = system: H3255
Summary of the method: as §1

HARA = system: HARA
Summary of the method: as §1

HCC-366 = system: HCC-366
Summary of the method: as §1

HCC-78 = system: HCC-78
Summary of the method: as §1

LU99A = system: LU99A
Summary of the method: as §1

NCI-H1650 = system: NCI-H1650
Summary of the method: as §1

NCI-H1651 = system: NCI-H1651
Summary of the method: as §1

NCI-H1755 = system: NCI-H1755
Summary of the method: as §1

NCI-H1793 = system: NCI-H1793
Summary of the method: as §1

NCI-H2085 = system: NCI-H2085
Summary of the method: as §1

NCI-H2087 = system: NCI-H2087
Summary of the method: as §1

NCI-H23 = system: NCI-H23
Summary of the method: as §1

NCI-H3122 = system: NCI-H3122
Summary of the method: as §1

NCI-H322M = system: NCI-H322M
Summary of the method: as §1

NCI-H358 = system: NCI-H358
Summary of the method: as §1

NCI-H460 = system: NCI-H460
Summary of the method: as §1

NCI-H522 = system: NCI-H522
Summary of the method: as §1

NCI-H650 = system: NCI-H650
Summary of the method: as §1

PC-3 [JPC-3] = system: PC-3 [JPC-3]
Summary of the method: as §1

SK-LU-1 = system: SK-LU-1
Summary of the method: as §1

CCNC(=O)c1noc(-c2cc(C(C)C)c(O)cc2O)c1-c1ccc(CN2CCOCC2)cc1 [Luminespib] + CC(=O)c1c(C)c2cnc(Nc3ccc(N4CCNCC4)cn3)nc2n(C2CCCC2)c1=O [Palbociclib] (partner 0.5 µM)
relative viability (201T; first compound 0.002 µM): 0.363
relative viability (201T; first compound 0.006325 µM): 0.366
relative viability (201T; first compound 0.02 µM): 0.309
relative viability (201T; first compound 0.06325 µM): 0.352
relative viability (201T; first compound 0.2 µM): 0.356
relative viability (COR-L23; first compound 0.002 µM): 0.343
relative viability (COR-L23; first compound 0.006325 µM): 0.274
relative viability (COR-L23; first compound 0.02 µM): 0.26
relative viability (COR-L23; first compound 0.06325 µM): 0.0657
relative viability (COR-L23; first compound 0.2 µM): 0.071
relative viability (H3255; first compound 0.002 µM): 0.325
relative viability (H3255; first compound 0.006325 µM): 0.304
relative viability (H3255; first compound 0.02 µM): 0.308
relative viability (H3255; first compound 0.06325 µM): 0.281
relative viability (H3255; first compound 0.2 µM): 0.296
relative viability (HARA; first compound 0.002 µM): 0.221
relative viability (HARA; first compound 0.006325 µM): 0.221
relative viability (HARA; first compound 0.02 µM): 0.213
relative viability (HARA; first compound 0.06325 µM): 0.253
relative viability (HARA; first compound 0.2 µM): 0.11
relative viability (HCC-366; first compound 0.002 µM): 0.363
relative viability (HCC-366; first compound 0.006325 µM): 0.358
relative viability (HCC-366; first compound 0.02 µM): 0.411
relative viability (HCC-366; first compound 0.06325 µM): 0.0279
relative viability (HCC-366; first compound 0.2 µM): 0.0276
relative viability (HCC-78; first compound 0.002 µM): 0.461
relative viability (HCC-78; first compound 0.02 µM): 0.467
relative viability (HCC-78; first compound 0.06325 µM): 0.51
relative viability (HCC-78; first compound 0.2 µM): 0.427
relative viability (LU99A; first compound 0.002 µM): 0.369
relative viability (LU99A; first compound 0.006325 µM): 0.379
relative viability (LU99A; first compound 0.02 µM): 0.272
relative viability (LU99A; first compound 0.06325 µM): 0.428
relative viability (LU99A; first compound 0.2 µM): 0.417
relative viability (NCI-H1650; first compound 0.002 µM): 0.305
relative viability (NCI-H1650; first compound 0.006325 µM): 0.302
relative viability (NCI-H1650; first compound 0.02 µM): 0.168
relative viability (NCI-H1650; first compound 0.06325 µM): 0.106
relative viability (NCI-H1650; first compound 0.2 µM): 0.127
relative viability (NCI-H1651; first compound 0.002 µM): 0.544
relative viability (NCI-H1651; first compound 0.006325 µM): 0.521
relative viability (NCI-H1651; first compound 0.02 µM): 0.408
relative viability (NCI-H1651; first compound 0.06325 µM): 0.423
relative viability (NCI-H1651; first compound 0.2 µM): 0.332
relative viability (NCI-H1755; first compound 0.002 µM): 0.51
relative viability (NCI-H1755; first compound 0.006325 µM): 0.474
relative viability (NCI-H1755; first compound 0.02 µM): 0.44
relative viability (NCI-H1755; first compound 0.06325 µM): 0.462
relative viability (NCI-H1755; first compound 0.2 µM): 0.373
relative viability (NCI-H1793; first compound 0.002 µM): 0.306
relative viability (NCI-H1793; first compound 0.006325 µM): 0.334
relative viability (NCI-H1793; first compound 0.02 µM): 0.211
relative viability (NCI-H1793; first compound 0.06325 µM): 0.151
relative viability (NCI-H1793; first compound 0.2 µM): 0.165
relative viability (NCI-H2085; first compound 0.002 µM): 0.447
relative viability (NCI-H2085; first compound 0.006325 µM): 0.434
relative viability (NCI-H2085; first compound 0.02 µM): 0.453
relative viability (NCI-H2085; first compound 0.06325 µM): 0.388
relative viability (NCI-H2085; first compound 0.2 µM): 0.263
relative viability (NCI-H2087; first compound 0.002 µM): 0.205
relative viability (NCI-H2087; first compound 0.006325 µM): 0.232
relative viability (NCI-H2087; first compound 0.02 µM): 0.185
relative viability (NCI-H2087; first compound 0.06325 µM): 0.11
relative viability (NCI-H2087; first compound 0.2 µM): 0.114
relative viability (NCI-H23; first compound 0.002 µM): 0.567
relative viability (NCI-H23; first compound 0.006325 µM): 0.582
relative viability (NCI-H23; first compound 0.02 µM): 0.376
relative viability (NCI-H23; first compound 0.06325 µM): 0.154
relative viability (NCI-H23; first compound 0.2 µM): 0.14
relative viability (NCI-H3122; first compound 0.002 µM): 0.173
relative viability (NCI-H3122; first compound 0.006325 µM): 0.233
relative viability (NCI-H3122; first compound 0.02 µM): 0.173
relative viability (NCI-H3122; first compound 0.06325 µM): 0.197
relative viability (NCI-H3122; first compound 0.2 µM): 0.196
relative viability (NCI-H322M; first compound 0.002 µM): 0.406
relative viability (NCI-H322M; first compound 0.006325 µM): 0.471
relative viability (NCI-H322M; first compound 0.02 µM): 0.448
relative viability (NCI-H322M; first compound 0.06325 µM): 0.427
relative viability (NCI-H322M; first compound 0.2 µM): 0.382
relative viability (NCI-H358; first compound 0.002 µM): 0.135
relative viability (NCI-H358; first compound 0.006325 µM): 0.132
relative viability (NCI-H358; first compound 0.02 µM): 0.102
relative viability (NCI-H358; first compound 0.06325 µM): 0.0751
relative viability (NCI-H358; first compound 0.2 µM): 0.0736
relative viability (NCI-H460; first compound 0.002 µM): 0.288
relative viability (NCI-H460; first compound 0.006325 µM): 0.126
relative viability (NCI-H460; first compound 0.02 µM): 0.0359
relative viability (NCI-H460; first compound 0.06325 µM): 0.0096
relative viability (NCI-H460; first compound 0.2 µM): 0.0106
relative viability (NCI-H522; first compound 0.002 µM): 0.848
relative viability (NCI-H522; first compound 0.006325 µM): 0.937
relative viability (NCI-H522; first compound 0.02 µM): 0.764
relative viability (NCI-H522; first compound 0.06325 µM): 0.861
relative viability (NCI-H522; first compound 0.2 µM): 0.411
relative viability (NCI-H650; first compound 0.002 µM): 0.39
relative viability (NCI-H650; first compound 0.006325 µM): 0.283
relative viability (NCI-H650; first compound 0.02 µM): 0.277
relative viability (NCI-H650; first compound 0.06325 µM): 0.181
relative viability (NCI-H650; first compound 0.2 µM): 0.0632
relative viability (PC-3 [JPC-3]; first compound 0.002 µM): 0.558
relative viability (PC-3 [JPC-3]; first compound 0.006325 µM): 0.544
relative viability (PC-3 [JPC-3]; first compound 0.02 µM): 0.518
relative viability (PC-3 [JPC-3]; first compound 0.06325 µM): 0.473
relative viability (PC-3 [JPC-3]; first compound 0.2 µM): 0.436
relative viability (SK-LU-1; first compound 0.002 µM): 0.456
relative viability (SK-LU-1; first compound 0.006325 µM): 0.318
relative viability (SK-LU-1; first compound 0.02 µM): 0.294
relative viability (SK-LU-1; first compound 0.06325 µM): 0.186
relative viability (SK-LU-1; first compound 0.2 µM): 0.194
